Key:
[1] = target: SREBP-2 (Homo sapiens (Human), UniProt Q12772); experiment: In vitro assay SREBP-2: PathHunter U2OS SREBP-2 Nuclear Translocation Cell Line, U18666A-stimulated; format: cell-based; conditions: PathHunter U2OS SREBP-2 nuclear translocation cells, U18666A 10 μM, overnight (16 hours)
[2] = target: LXRβ (Homo sapiens (Human), UniProt P55055); experiment: In vitro assay LXRβ: PathHunter NHR CHO cells, LXRβ / Steroid Receptor Co-activator Peptide enzyme fragment complementation; format: cell-based; conditions: PathHunter NHR CHO cells, full-length human LXRβ and SRCP, chemiluminescent signal; read-out: LXRβ PPI
LXRβ, sequence (P55055 whole entry, the tested form may be a part): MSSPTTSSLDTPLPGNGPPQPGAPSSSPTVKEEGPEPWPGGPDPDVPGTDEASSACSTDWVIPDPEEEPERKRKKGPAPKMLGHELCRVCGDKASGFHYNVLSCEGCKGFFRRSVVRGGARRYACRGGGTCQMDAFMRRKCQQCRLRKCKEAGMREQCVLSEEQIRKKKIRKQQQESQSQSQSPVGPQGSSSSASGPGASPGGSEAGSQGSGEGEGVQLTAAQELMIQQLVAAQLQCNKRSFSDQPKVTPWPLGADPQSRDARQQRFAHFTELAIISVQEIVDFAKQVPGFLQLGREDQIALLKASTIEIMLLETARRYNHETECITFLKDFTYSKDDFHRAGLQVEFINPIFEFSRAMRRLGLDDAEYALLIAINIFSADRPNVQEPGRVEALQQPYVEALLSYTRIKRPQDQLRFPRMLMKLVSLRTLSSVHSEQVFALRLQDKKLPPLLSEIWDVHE
Method in brief: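 Co-activator recruitment measured by chemiluminescence after signal generation. The CHO line carries full-length human LXRβ tagged with ProLink and an SRCP–enzyme acceptor fusion in the nucleus; cells sat overnight at 37° C before testing, in charcoal-dextran filtered serum medium with 1% final vehicle.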

| Structure (SMILES) | IC50 [1] [µM] | EC50 [2] [µM] |
| --- | --- | --- |
| CC(C)N1CCN(C(=O)CC[C@@H](C)[C@H]2CC[C@H]3[C@@H]4CC=C5C[C@@H](O)CC[C@]5(C)[C@H]4CC[C@]23C)CC1 [Example 316, (R)-4-((3S,8S,9S,10R,13R,14S,17R)-3-hydroxy-10,13-dimethyl-2,3,4,7,8,9,10,11,12,13,14,15,16,17-tetradecahydro-1H-cyclopenta[a]phenanthren-17-yl)-1-(4-isopropylpiperazin-1-yl) pentan-1-one] | < 0.25 | > 10 |
| CC(=O)N1CCCN(C(=O)CC[C@@H](C)[C@H]2CC[C@H]3[C@@H]4CC=C5C[C@@H](O)CC[C@]5(C)[C@H]4CC[C@]23C)CC1 [Example 317, (R)-1-(4-acetyl-1,4-diazepan-1-yl)-4-((3S,8S,9S,10R,13R,14S,17R)-3-hydroxy-10,13-dimethyl-2,3,4,7,8,9,10,11,12,13,14,15,16,17-tetradecahydro-1H-cyclopenta[a]phenanthren-17-yl)pentan-1-one] | < 0.25 | > 10 |
| CC(=O)N1C[C@@H]2CN(C(=O)CC[C@@H](C)[C@H]3CC[C@H]4[C@@H]5CC=C6C[C@@H](O)CC[C@]6(C)[C@H]5CC[C@]34C)C[C@@H]2C1 [Example 318, (4R)-1-[(3aR,6aS)-5-acetyl-octahydropyrrolo[3,4-c]pyrrol-2-yl]-4-[(1R,3aS,3bS,7S,9aR,9bS,11aR)-7-hydroxy-9a,11a-dimethyl-1H,2H,3H,3aH,3bH,4H,6H,7H,8H,9H,9aH,9bH,10H,11H,11aH-cyclopenta[a]phenanthren-1-yl]pentan-1-one] | 0.25 to 1 | > 10 |
| CC(=O)N(C)C1CCN(C(=O)CC[C@@H](C)[C@H]2CC[C@H]3[C@@H]4CC=C5C[C@@H](O)CC[C@]5(C)[C@H]4CC[C@]23C)CC1 [Example 319, N-(1-((R)-4-((3S,8S,9S,10R,13R,14S,17R)-3-hydroxy-10,13-dimethyl-2,3,4,7,8,9,10,11,12,13,14,15,16,17-tetradecahydro-1H-cyclopenta[a]phenanthren-17-yl)pentanoyl)piperidin-4-yl)-N-methylacetamide] | < 0.25 | > 10 |
| CC(=O)NC1CCN(C(=O)CC[C@@H](C)[C@H]2CC[C@H]3[C@@H]4CC=C5C[C@@H](O)CC[C@]5(C)[C@H]4CC[C@]23C)CC1 [Example 320, N-(1-((R)-4-((3S,8S,9S,10R,13R,14S,17R)-3-hydroxy-10,13-dimethyl-2,3,4,7,8,9,10,11,12,13,14,15,16,17-tetradecahydro-1H-cyclopenta[a]phenanthren-17-yl)pentanoyl)piperidin-4-yl)acetamide] | < 0.25 | > 10 |
| CC(=O)N(C)[C@H]1CCN(C(=O)CC[C@@H](C)[C@H]2CC[C@H]3[C@@H]4CC=C5C[C@@H](O)CC[C@]5(C)[C@H]4CC[C@]23C)C1 [Example 321, N—((S)-1-((R)-4-((3S,8S,9S,10R,13R,14S,17R)-3-hydroxy-10,13-dimethyl-2,3,4,7,8,9,10,11,12,13,14,15,16,17-tetradecahydro-1H-cyclopenta[a]phenanthren-17-yl)pentanoyl)pyrrolidin-3-yl)-N-methylacetamide] | < 0.25 | > 10 |
| CC(=O)N[C@H]1CCN(C(=O)CC[C@@H](C)[C@H]2CC[C@H]3[C@@H]4CC=C5C[C@@H](O)CC[C@]5(C)[C@H]4CC[C@]23C)C1 [Example 322, N—((S)-1-((R)-4-((3S,8S,9S,10R,13R,14S,17R)-3-hydroxy-10,13-dimethyl-2,3,4,7,8,9,10,11,12,13,14,15,16,17-tetradecahydro-1H-cyclopenta[a]phenanthren-17-yl)pentanoyl)pyrrolidin-3-yl)acetamide] | < 0.25 | > 10 |
| CC(=O)N(C)[C@@H]1CCN(C(=O)CC[C@@H](C)[C@H]2CC[C@H]3[C@@H]4CC=C5C[C@@H](O)CC[C@]5(C)[C@H]4CC[C@]23C)C1 [Example 323, N—((R)-1-((R)-4-((3S,8S,9S,10R,13R,14S,17R)-3-hydroxy-10,13-dimethyl-2,3,4,7,8,9,10,11,12,13,14,15,16,17-tetradecahydro-1H-cyclopenta[a]phenanthren-17-yl)pentanoyl)pyrrolidin-3-yl)-N-methylacetamide] | 0.25 to 1 | > 10 |
| CC(=O)N[C@@H]1CCN(C(=O)CC[C@@H](C)[C@H]2CC[C@H]3[C@@H]4CC=C5C[C@@H](O)CC[C@]5(C)[C@H]4CC[C@]23C)C1 [Example 324, N-[(3R)-1-[(4R)-4-[(1R,3aS,3bS,7S,9aR,9bS,11aR)-7-hydroxy-9a,11a-dimethyl-1H,2H,3H,3aH,3bH,4H,6H,7H,8H,9H,9aH,9bH,10H,11H,11aH-cyclopenta[a]phenanthren-1-yl]pentanoyl]pyrrolidin-3-yl]acetamide] | 0.25 to 1 | > 10 |
| C#CC1(OC(C)C)CCN(C(=O)CC[C@@H](C)[C@H]2CC[C@H]3[C@@H]4CC=C5C[C@@H](O)CC[C@]5(C)[C@H]4CC[C@]23C)CC1 [Example 329, [(1R,3aS,3bS,7S,9aR,9bS,11aR)-7-hydroxy-9a,11a-dimethyl-1H,2H,3H,3aH,3bH,4H,6H,7H,8H,9H,9aH,9bH,10H,11H,11aH-cyclopenta[a]phenanthren-1-yl]-1-[4-ethynyl-4-(propan-2-yloxy)piperidin-1-yl]pentan-1-one] | < 0.25 | 1 to 10 |
| COC([C@@H]1CCN(C(=O)CC[C@@H](C)[C@H]2CC[C@H]3[C@@H]4CC=C5C[C@@H](O)CC[C@]5(C)[C@H]4CC[C@]23C)C1)(C(F)(F)F)C(F)(F)F [Example 331, (4R)-4-[(1R,3aS,3bS,7S,9aR,9bS,11aR)-7-hydroxy-9a,11a-dimethyl-1H,2H,3H,3aH,3bH,4H,6H,7H,8H,9H,9aH,9bH,10H,11H,11aH-cyclopenta[a]phenanthren-1-yl]-1-[(3R)-3-(1,1,1,3,3,3-hexafluoro-2-methoxypropan-2-yl)pyrrolidin-1-yl]pentan-1-one] | < 0.25 | > 10 |
| C[C@H](CCC(=O)N1CCN(C(=O)c2ncccn2)CC1)[C@H]1CC[C@H]2[C@@H]3CC=C4C[C@@H](O)CC[C@]4(C)[C@H]3CC[C@]12C [Example 332, (R)-4-((3S,8S,9S,10R,13R,14S,17R)-3-hydroxy-10,13-dimethyl-2,3,4,7,8,9,10,11,12,13,14,15,16,17-tetradecahydro-1H-cyclopenta[a]phenanthren-17-yl)-1-(4-(pyrimidine-2-carbonyl)piperazin-1-yl)pentan-1-one] | < 0.25 | > 10 |
| C[C@H](CCC(=O)N1CCN(C(=O)c2ccncn2)CC1)[C@H]1CC[C@H]2[C@@H]3CC=C4C[C@@H](O)CC[C@]4(C)[C@H]3CC[C@]12C [Example 334, (R)-4-((3S,8S,9S,10R,13R,14S,17R)-3-hydroxy-10,13-dimethyl-2,3,4,7,8,9,10,11,12,13,14,15,16,17-tetradecahydro-1H-cyclopenta[a]phenanthren-17-yl)-1-(4-(pyrimidine-4-carbonyl)piperazin-1-yl)pentan-1-one] | < 0.25 | > 10 |
| C[C@H](CCC(=O)N1CCN(C(=O)c2ccccn2)CC1)[C@H]1CC[C@H]2[C@@H]3CC=C4C[C@@H](O)CC[C@]4(C)[C@H]3CC[C@]12C [Example 335, (4R)-4-[(1R,3aS,3bS,7S,9aR,9bS,11aR)-7-hydroxy-9a,11a-dimethyl-1H,2H,3H,3aH,3bH,4H,6H,7H,8H,9H,9aH,9bH,10H,11H,11aH-cyclopenta[a]phenanthren-1-yl]-1-[4-(pyridine-2-carbonyl)piperazin-1-yl]pentan-1-one] | < 0.25 | > 10 |
| C[C@H](CCC(=O)N1CCN(C(=O)C(C)(C)O)CC1)[C@H]1CC[C@H]2[C@@H]3CC=C4C[C@@H](O)CC[C@]4(C)[C@H]3CC[C@]12C [Example 336, (R)-4-((3S,8S,9S,10R,13R,14S,17R)-3-hydroxy-10,13-dimethyl-2,3,4,7,8,9,10,11,12,13,14,15,16,17-tetradecahydro-1H-cyclopenta[a]phenanthren-17-yl)-1-(4-(2-hydroxy-2-methylpropanoyl)piperazin-1-yl)pentan-1-one] | < 0.25 | > 10 |
| CNC(=O)N1CCN(C(=O)CC[C@@H](C)[C@H]2CC[C@H]3[C@@H]4CC=C5C[C@@H](O)CC[C@]5(C)[C@H]4CC[C@]23C)CC1 [Example 337, 4-[(4R)-4-[(1R,3aS,3bS,7S,9aR,9bS,11aR)-7-hydroxy-9a,11a-dimethyl-1H,2H,3H,3aH,3bH,4H,6H,7H,8H,9H,9aH,9bH,10H,11H,11aH-cyclopenta[a]phenanthren-1-yl]pentanoyl]-N-methylpiperazine-1-carboxamide] | < 0.25 | > 10 |
| C[C@H](CCC(=O)N1CCN(C(=O)NC2CC2)CC1)[C@H]1CC[C@H]2[C@@H]3CC=C4C[C@@H](O)CC[C@]4(C)[C@H]3CC[C@]12C [Example 338, 4-[(4R)-4-[(1R,3aS,3bS,7S,9aR,9bS,11aR)-7-hydroxy-9a,11a-dimethyl-1H,2H,3H,3aH,3bH,4H,6H,7H,8H,9H,9aH,9bH,10H,11H,11aH-cyclopenta[a]phenanthren-1-yl]pentanoyl]-N-cyclopropylpiperazine-1-carboxamide] | < 0.25 | > 10 |
| C[C@H](CCC(=O)N1CCN(C(=O)N(C)C)CC1)[C@H]1CC[C@H]2[C@@H]3CC=C4C[C@@H](O)CC[C@]4(C)[C@H]3CC[C@]12C [Example 339, 4-[(4R)-4-[(1R,3aS,3bS,7S,9aR,9bS,11aR)-7-hydroxy-9a,11a-dimethyl-1H,2H,3H,3aH,3bH,4H,6H,7H,8H,9H,9aH,9bH,10H,11H,11aH-cyclopenta[a]phenanthren-1-yl]pentanoyl]-N,N-dimethylpiperazine-1-carboxamide] | < 0.25 | > 10 |
